ChEMBL document CHEMBL3507680, “University of Dundee, Gates Library screen for HepG2 cell viability”

Assay: Human HepG2 cell viability assay in 384 well format
Type: toxicity, cell-based
Design: dose 125 nL, time 70.5 hour; cytotoxicity at 70.5 h: concentration not given beside the values
Conditions: HepG2 cells, read-out: Inhibition

SMILES | cytotoxicity at 70.5 h [%]
CC(C)(CNc1cn[nH]c(=O)c1Cl)c1ccc2c(c1)OCCO2 | -13.9
CC(C)(C)C(=O)NCC(=O)NCCc1nc(C(F)(F)F)cs1 | -9.84
CC(C)c1cc(Br)ccc1NC(=O)NCC(O)CO (centres undefined) | -3.27
CSc1ccc2cc(CN(C)CCO)c(=O)[nH]c2c1 | -16.3
Cc1nc(C)n(C2CCCN(C(=O)c3c(C)nn4cccnc34)C2)n1 (centres undefined) | 20.7
CC(C)N1CCOC[C@H]1c1nc(C(C)(C)C)c[nH]1 | 0.329
CC(C)c1nc(C2CCCN(C(=O)Cn3ccccc3=O)C2)no1 (centres undefined) | -1.03
O=C(O)CC1COCCN1CCCc1ccccc1 (centres undefined) | -11.2
O=C1OCCN1CCSc1nnnn1C1CCOCC1 | -17.6
O=C(C1CCOCC1)N(CCc1ccccc1)C1CCOC1 (centres undefined) | 8.62
CC[C@@H](CO)NC(=O)c1coc(COc2ccc(OC)cc2)n1 | -13
COc1nn(C)cc1C(=O)NCC(=O)NCc1ccccn1 | -11
Fc1cnc(N2CCCC3(CCN(Cc4ccco4)C3)C2)nc1 (centres undefined) | 10.4
Cc1nccc(C(=O)N2CCCN(Cc3cnn(C(C)C)c3)CC2)n1 | -4.5
COCCN(CC1CC1)c1nc(CCN)nc2sc(C)c(C)c12 | 26.7
O=C(c1scc2c1OCCO2)N1CCOC(Cc2ccc(F)cc2)C1 (centres undefined) | -0.136
CC(=O)N(Cc1ncc(C)o1)C1CCN(Cc2cccnc2)C1 (centres undefined) | 2.44
CC(C)NC(=O)[C@H]1C[C@@H]2[C@@H](C1)OCCN2Cc1ccccn1 | -5.2
O=C(CO)N1C[C@H]2CN(Cc3cccc(F)c3)C(=O)[C@H]2C1 | -5.34
CCN1C(=O)CC[C@]12CC[C@@H](NC(=O)NCc1cccnc1)CC2 | -4.88
COc1ncccc1C(=O)N1CCCC1c1nc(-c2ccccc2)n[nH]1 (centres undefined) | -0.047
Cc1ncc2c(n1)CN(Cc1ncc(C(C)(C)C)o1)CC2 | -13.9
CCN(CC)C(=O)c1ccn(COc2c(Cl)cccc2Cl)n1 | -10.4

SMILES | cytotoxicity at 70.5 h [%]
Cc1ccc(C(=O)NCc2ccc(N3CCCC(C(N)=O)C3)cc2)o1 (centres undefined) | -14.6
CCOCC(=O)N1Cc2[nH]nc(COCC3CC3)c2C1 | 0.817
CCOc1ccc(CCCC(=O)N2CC[C@H](NC(C)=O)C2)cc1C | -12.4
CC(C)c1nc(CSc2nnc(-c3cccs3)n2CC(N)=O)no1 | -9.43
COc1c(C(=O)N2CCNC(=O)C2)cnc2c1c(C)nn2C | 21
O=C(COc1coc(CN2CCSCC2)cc1=O)c1ccccc1 | -24.2
COCc1ncc(-c2nccn2CCN(C)C)cn1 | -2.63
c1ccc(Oc2cc(CNCC3CNc4ccnn4C3)ccn2)cc1 (centres undefined) | -2.96
CCN(CC)C(=O)CCNC(=O)Cc1nc(-c2ccco2)oc1C | 4.78
Cc1cnc(NS(=O)(=O)c2cccc(C#N)c2)s1 | 20.1
O=C([C@@H]1COC[C@H]2CN(C3CCOCC3)C[C@H]21)N1CCCO1 | 14.5
COc1cc(N2CCC3(CCCN3Cc3cnn(C)c3)CC2)ncn1 | -3.32
CN(C)CCN(Cc1ccc(Cl)cc1)C(=O)c1cnccn1 | 3.24
CCC(NC(=O)c1cccc2[nH]ccc12)C(=O)N1CCOCC1 (centres undefined) | -6.49
CCc1nc(C2CCCN(C(=O)c3cnn(CC)c3)C2)no1 (centres undefined) | 2.05
Cc1ccc(S(=O)(=O)N(C)c2ccsc2C(=O)NCC(C)C)cc1 | 45.4
CCOC1CCCN(C(=O)c2cnc3c(cnn3C3CCCC3)c2)C1 (centres undefined) | -18
CC(C)n1cc(CN2CCCN(C(=O)c3cccn3C)CC2)cn1 | -2.47
O=C(CC1CC2(CCN(CC3CC3)CC2)Oc2ccccc21)NC1CC1 (centres undefined) | -5.53
Cc1noc([C@H]2C[C@H]3CN(C(=O)Cc4ccsc4)CC[C@H]3O2)n1 | -9.17
Cc1ccccc1CCCN1C(=O)CC2(CCSC2)C1=O (centres undefined) | 2.27
Cc1cc(C(F)(F)F)nn1C(C)C(=O)NN1CCN(C)CC1 (centres undefined) | 18.4
COCCN1C(=O)[C@]2(CC[C@@H]3CN(S(=O)(=O)CC(C)C)C[C@@H]32)N=C1C | 13.1

SMILES | cytotoxicity at 70.5 h [%]
Cc1cccc(-c2nc(CN3CCCC3Cn3cc(C)cn3)no2)c1 (centres undefined) | 6.59
COCC(=O)N1CCC(c2cncc(-c3cccc(F)c3)n2)CC1 | -7.23
O=C(Nc1c(N2CCCC2)cccc1N1CCCC1)c1ccccn1 | -12.8
Cc1ccc(CC(=O)N2CCC(Nc3cccnn3)CC2)s1 | 0.908
c1cc(-c2ccc3c(c2)CCC32CCN(c3nncs3)CC2)co1 | -9.51
COc1ccccc1C(=O)NC[C@H]1COCc2nc3c(C)cccc3n21 | -1.28
COCCNC(=O)c1ccc(NCc2c(C)noc2C)cc1Cl | -6.64
CCOc1ccc(NC2CCN(CC(F)(F)F)C2=O)cc1C (centres undefined) | -5.71
COc1cc(C)ccc1OCCC(=O)N1CCC(C(N)=O)C1 (centres undefined) | -10.8
Cc1ccc(CNC(=O)c2cc(CN3CCC(O)CC3)on2)s1 | -18
Cc1ccccc1C(=O)N1CCC2(CC1)CC(c1cnn(C)c1)CO2 (centres undefined) | -11.9
CC(C)c1cccc(-n2cc(O)c(C(=O)O)n2)c1 | -5.44
CCOc1ccc(NC(=O)Cc2cc(C)[nH]n2)cc1CO | -7.67
CC(NC(=O)C1=NN(C)C(=O)CC1)c1ccccc1Cl (centres undefined) | -96.4
CCN1CCN(C(=O)c2cccn2Cc2ccccc2)CC1 | -0.982
CCNC(=O)c1ccc2c(c1)nc1n2CCN(Cc2ccco2)C1 | -16
Cc1noc(C)c1CN1CC[C@H]2[C@H]1CCN2CC1CCOCC1 | -5.25
CCN(CC)C(=O)c1ccc(Cl)c(NC(=O)c2cnc(C)cn2)c1 | -7.02
Cc1cc(N2CCN(c3nc4ccccc4cc3CO)CC2)nc(C)n1 | -9.44
CCN(C)c1ncnc2c1CCN(Cc1ccc(F)cc1)CC2 | 19.9
CC1COCCN1C(=O)Cc1cc(Cl)c2c(c1)OCCCO2 (centres undefined) | -14.3
Cc1cnc(CCNC(=O)NCCc2ccc(O)cc2)s1 | -3.5
CN(C)C(=O)CN1CCCC2(CCN(c3ccsc3)C2=O)C1 (centres undefined) | 23.7

SMILES | cytotoxicity at 70.5 h [%]
CCc1ccc(S(=O)(=O)N2CCN(CCn3ccnc3)CC2)cc1 | -0.658
Cn1ccc(C(=O)NCc2cccc(Cn3ccnc3)c2)cc1=O | -4.36
Cc1cc(C)c2[nH]c(=O)c(CN3CCCC4(C3)CN(C)C(=O)O4)cc2c1 (centres undefined) | -8.68
Cc1cccc(OCC(=O)N2CCN(C3CCOC3=O)CC2)c1C (centres undefined) | -2.32
CCN(CC1CN(CC2CCC2)CCO1)c1cccnn1 (centres undefined) | -6.19
Cc1ccsc1C1CCCCCN1Cc1cn(C)nc1C (centres undefined) | -13.5
CSCc1noc(CNC(=O)c2cc(C)c(C)[nH]c2=O)n1 | -5.2
CN(Cc1ccc(C(=O)Nc2sccc2C#N)cc1)Cc1ccno1 | -5.41
CN(Cc1ccncc1)C1COC2(CCN(c3ncc(F)cn3)CC2)C1 (centres undefined) | -1.66
CC(C)c1n[nH]c(C2CN(CCCS(C)(=O)=O)CCO2)n1 (centres undefined) | -4.2
CN1[C@H](CN2CCCC2)C[C@@H]2CN(C(=O)c3cnccn3)CC[C@@H]21 | -4.55
Cn1ccnc1CN1CCN2C[C@H](Oc3cccc(F)c3)C[C@H]2C1 | 11.9
Nc1cc(C(=O)N2CCCC3(C=Cc4ccccc4O3)CC2)ccn1 (centres undefined) | -4.49
Cc1nn(C)c(C)c1CC(=O)NCc1ccnc(N2CCOCC2)c1 | -6.63
CCN1CC(C(=O)NCc2cccnc2-n2cccn2)CC1=O (centres undefined) | -7.76
CSc1ncnc(NCc2ccco2)c1C#N | -12.3
Fc1ccc(CN2CCCn3cnc(COCC4CC4)c3C2)cc1 | 2.87
CCOCCN1CCC(c2cncc(C)n2)CC1 | -1.63
CN1CCN(S(=O)(=O)c2ncn(C)c2Cl)CC1 | -5.44
O=C(CO)N1CCC(c2cncc(-c3cccc(Cl)c3)n2)CC1 | -3.18
CCCNC(=O)CCNC(=O)N1CCc2c(F)ccc(F)c2C1 | 3.2
Cc1nc(C2CCCN(C(=O)CCCn3ccnc3C)C2)no1 (centres undefined) | -11.8
CC(C)C(NC(=O)NCCNc1ccccn1)c1cccs1 (centres undefined) | -8.85

SMILES | cytotoxicity at 70.5 h [%]
CC(C)(C)c1cc(CNC(=O)c2cc(COc3ccccc3)[nH]n2)[nH]n1 | 8.48
COc1ncc(C)cc1NC(=O)CCc1ccccn1 | 17.6
Cc1cnn(-c2cncc(C(N)=O)c2)c1 | -5.78
O=C(NCC(O)COc1cccc(F)c1)C1(c2ccc(F)cc2)CC1 (centres undefined) | -12
CCNC(=O)NCCCn1nc2ccccn2c1=O | -9.28
CNc1cc(N2CCCC2CNCc2cccnc2C)ncn1 (centres undefined) | 4.98
CCOc1cc(=O)n2c(c1C(=O)OCc1cccc(C)c1)CCCC2 | -11.3
CN(C)CC1(O)CCN(C(=O)Cc2ccc3c(c2)CCCC3)C1 (centres undefined) | -7
O=C(Nc1ccc(-c2cscn2)cc1)C1CCCN(Cc2ccon2)C1 (centres undefined) | -1.4
CC(=O)N1CCO[C@@H]2CN(C(=O)NCc3ccccc3)CC[C@@H]2C1 | 9.54
CN(Cc1cccs1)C(=O)CN1C(=O)c2cc(Cl)c(Cl)cc2C1=O | -13.1
CCOCC1CN(C(=O)c2ccncn2)Cc2cnn(C)c21 (centres undefined) | -3.18
CN(Cc1cn2c(n1)CN(C(=O)N(C)C)CC2)Cc1ccco1 | -5.21
O=C(CCn1cccn1)N1CC[C@@H](c2ccc3ccccc3c2)[C@H](O)C1 | 3.07
CN1C[C@H]2N(c3ncccn3)CCC[C@@]2(C(=O)NCC2CC2)C1 | -6.84
Cc1cnn(CC2CCCCN2C(=O)Cc2c(C)noc2C)c1 (centres undefined) | -9.25
Cc1noc(NCc2cc(F)ccc2F)n1 | -3.22
CNC(=O)c1cc2ccccc2n1C | 16.4
CC(=O)Nc1ccc(-n2cncn2)c(F)c1 | -2.56
Cn1cccc1C(=O)N1C[C@@H]2CCN(c3cccnc3)C[C@@H]2C1 | -7.6
COC(=O)c1cnn(-c2cc(Oc3cccc(C)c3)ncn2)c1N | 4
N#CC1COCCN1C(=O)c1ccc2[nH]cnc2c1 (centres undefined) | -1.24
